Experimental data from ChEMBL document CHEMBL4818987, “Recent advances of podophyllotoxin/epipodophyllotoxin hybrids in anticancer activity, mode of action, and structure-activity relationship: An update (2010-2020)” (Eur J Med Chem, 2020).

What was measured:
Type in all cases: functional, cell-based
[1] = system: MKN-45; experiment: Antiproliferative activity against human MKN-45 cells incubated for 48 to 72 hrs by MTT assay
[2] = system: B16; experiment: Antiproliferative activity against […] cells incubated for 48 to 72 hrs by MTT assay; details: Mus musculus
[3] = system: HepG2; experiment: Antiproliferative activity against human HepG2 cells incubated for 48 to 72 hrs by MTT assay
[4] = system: NCI-H1993; experiment: Antiproliferative activity against human NCI-H1993 cells incubated for 48 to 72 hrs by MTT assay
[5] = system: MCF7; experiment: Antiproliferative activity against human MCF7 cells incubated for 48 hrs by MTT assay; details: MCF7, 48 h
[6] = system: SMMC-7721; experiment: Antiproliferative activity against human SMMC-7721 cells incubated for 48 hrs by MTT assay; details: SMMC-7721, 48 h
[7] = system: A549; experiment: Antiproliferative activity against human A549 cells incubated for 48 hrs by MTT assay; details: A549, 48 h
[8] = system: SW480; experiment: Antiproliferative activity against human SW480 cells incubated for 48 hrs by MTT assay; details: SW480, 48 h
[9] = system: HL-60; experiment: Antiproliferative activity against human HL-60 cells incubated for 48 hrs by MTT assay; details: HL-60, 48 h

Work on `COc1cc(C(=O)/C=C/c2cccs2)ccc1OCc1cn([C@H]2c3cc4c(cc3[C@@H](c3cc(OC)c(OC)c(OC)c3)[C@H]3C(=O)OC[C@@H]32)OCO4)nn1` yielded an IC50 [1] of 130 nM, an IC50 [2] of 130 nM and an IC50 [3] of 130 nM. It also gave an IC50 [4] of 130 nM.
For `COc1cc([C@@H]2c3cc4c(cc3[C@H](OC(=O)CCCC[C@@H]3SC[C@@H]5NC(=O)N[C@@H]53)[C@H]3COC(=O)[C@H]23)OCO4)cc(OC)c1OC`, the IC50 [5] was > 130 nM, the IC50 [6] was > 130 nM and the IC50 [7] was > 130 nM. For the same compound, the IC50 [8] was > 130 nM and the IC50 [9] was > 130 nM.
In the case of `COc1cc([C@@H]2c3cc4c(cc3[C@@H](n3cc(COC(=O)CCCCCNC(=O)CCCC[C@@H]5SC[C@@H]6NC(=O)N[C@@H]65)nn3)[C@H]3COC(=O)[C@H]23)OCO4)cc(OC)c1O`, the IC50 [5] is reported as > 130 nM, the IC50 [6] is reported as > 130 nM and the IC50 [7] is reported as > 130 nM. The IC50 [8] was > 130 nM and the IC50 [9] was > 130 nM.
For `COc1cc([C@@H]2c3cc4c(cc3[C@@H](OC(=O)CCCCCNC(=O)CCCC[C@@H]3SC[C@@H]5NC(=O)N[C@@H]53)[C@H]3COC(=O)[C@H]23)OCO4)cc(OC)c1O`, the IC50 [5] was > 130 nM, the IC50 [6] was > 130 nM and the IC50 [7] was > 130 nM. The IC50 [8] was > 130 nM and the IC50 [9] was > 130 nM.
For `CCC(C)(C)c1ccc(OCc2cn([C@H]3c4cc5c(cc4[C@@H](c4cc(OC)c(OC)c(OC)c4)[C@H]4C(=O)OC[C@@H]43)OCO5)nn2)cc1`, the IC50 [1] was 130 nM, the IC50 [2] was 130 nM and the IC50 [3] was 130 nM. It also gave an IC50 [4] of 130 nM.
Work on `COc1cc(C(=O)/C=C/c2ccncc2)ccc1OCc1cn([C@H]2c3cc4c(cc3[C@@H](c3cc(OC)c(OC)c(OC)c3)[C@H]3C(=O)OC[C@@H]32)OCO4)nn1` yielded an IC50 [1] of 130 nM, an IC50 [2] of 130 nM and an IC50 [3] of 130 nM. The IC50 [4] was 130 nM.
`COc1cc([C@@H]2c3cc4c(cc3[C@H](OC(=O)CCCCCNC(=O)CCCC[C@@H]3SC[C@@H]5NC(=O)N[C@@H]53)[C@H]3COC(=O)[C@H]23)OCO4)cc(OC)c1OC` was tested, and the IC50 [5] was > 130 nM, the IC50 [6] was > 130 nM and the IC50 [7] was > 130 nM. For the same compound, the IC50 [8] was > 130 nM and the IC50 [9] was > 130 nM.
For `COc1cc(OC)c(OC)cc1/C=C/C(=O)c1ccc(OCc2cn([C@H]3c4cc5c(cc4[C@@H](c4cc(OC)c(OC)c(OC)c4)[C@H]4C(=O)OC[C@@H]43)OCO5)nn2)c(OC)c1`, the IC50 [1] was 130 nM, the IC50 [2] was 130 nM and the IC50 [3] was 130 nM. The IC50 [4] was 130 nM.
`COc1cc(C(=O)/C=C/c2cc(OC)c(OC)c(OC)c2)ccc1OCc1cn([C@H]2c3cc4c(cc3[C@@H](c3cc(OC)c(OC)c(OC)c3)[C@H]3C(=O)OC[C@@H]32)OCO4)nn1` showed an IC50 [1] of 130 nM, an IC50 [2] of 130 nM and an IC50 [3] of 130 nM. For the same compound, the IC50 [4] was 130 nM.
In the case of `CCc1ccc(OC(C)(C)c2cn([C@H]3c4cc5c(cc4[C@@H](c4cc(OC)c(OC)c(OC)c4)[C@H]4C(=O)OC[C@@H]43)OCO5)nn2)cc1`, the IC50 [1] is reported as 150 nM, the IC50 [2] is reported as 150 nM and the IC50 [3] is reported as 150 nM. The IC50 [4] was 150 nM.
In the case of `COc1cc([C@@H]2c3cc4c(cc3[C@@H](NC(=O)CCCC[C@@H]3SC[C@@H]5NC(=O)N[C@@H]53)[C@H]3COC(=O)[C@H]23)OCO4)cc(OC)c1OC`, the IC50 [5] is reported as > 130 nM, the IC50 [6] is reported as > 130 nM and the IC50 [7] is reported as > 130 nM. The IC50 [8] was > 130 nM and the IC50 [9] was > 130 nM.
Compound `COc1cc([C@@H]2c3cc4c(cc3[C@H](n3cc(COc5ccc([N+](=O)[O-])cc5)nn3)[C@H]3COC(=O)[C@H]23)OCO4)cc(OC)c1OC` has an IC50 [1] of 130 nM, an IC50 [2] of 130 nM and an IC50 [3] of 130 nM. It also gave an IC50 [4] of 130 nM.
For `COc1cc([C@@H]2c3cc4c(cc3[C@H](n3cc(CNC(=O)c5ccccc5Cl)nn3)[C@H]3COC(=O)[C@H]23)OCO4)cc(OC)c1OC`, the IC50 [1] was 130 nM, the IC50 [2] was 130 nM and the IC50 [3] was 130 nM. The IC50 [4] was 130 nM.
For `COc1cc(C(=O)/C=C/c2ccc(F)cc2)ccc1OCc1cn([C@H]2c3cc4c(cc3[C@@H](c3cc(OC)c(OC)c(OC)c3)[C@H]3C(=O)OC[C@@H]32)OCO4)nn1`, the IC50 [1] was 130 nM, the IC50 [2] was 130 nM and the IC50 [3] was 130 nM. For the same compound, the IC50 [4] was 130 nM.
`COc1cc([C@@H]2c3cc4c(cc3[C@H](n3cc(CNC(=O)c5ccc(Cl)cc5)nn3)[C@H]3COC(=O)[C@H]23)OCO4)cc(OC)c1OC` was tested, and the IC50 [1] was 130 nM, the IC50 [2] was 130 nM and the IC50 [3] was 130 nM. For the same compound, the IC50 [4] was 130 nM.
Compound `COc1cc([C@@H]2c3cc4c(cc3[C@H](n3cc(COc5ccc(C)c([N+](=O)[O-])c5)nn3)[C@H]3COC(=O)[C@H]23)OCO4)cc(OC)c1OC` has an IC50 [1] of 130 nM, an IC50 [2] of 130 nM and an IC50 [3] of 130 nM. It also gave an IC50 [4] of 130 nM.
In the case of `CCCC(=O)O[C@@H]1[C@@H](OC(=O)CCC)[C@@H](O[C@@H]2c3cc4c(cc3[C@@H](c3cc(OC)c(O)c(OC)c3)[C@H]3C(=O)OC[C@@H]32)OCO4)OC[C@H]1OC(=O)CCC`, the IC50 [5] is reported as > 2900 nM, the IC50 [6] is reported as > 2900 nM and the IC50 [7] is reported as > 2900 nM. The IC50 [8] was > 2900 nM and the IC50 [9] was > 2900 nM.
